Test results: US20130035326A1 (AMBIT BIOSCIENCES CORPORATION, priority 2009, published 2013)
Values joined by “and” are separate entries in the source; they are usually repeats but may differ in a detail not shown here. Equal entries are not always repeated.

What was measured:
MV4-11 cells = experiment: MV4-11 cell proliferation assay (Alamar Blue); assay type: cell-based; conditions: Homo sapiens, MV4-11, 72 h, 3 days incubation
Method in brief: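 Flt3-ITD MV4-11 cells were serum-starved overnight in Iscove's with 0.5% FBS, then given compound at 9 half-log concentrations (0.5% DMSO) for 3 days at 37° C. Alamar Blue reduction was read after 3 h by fluorescence (560/590 nm). IC50 is the mean of duplicates versus negative control.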

KIT kinase = biological target: T1, KIT kinase (Homo sapiens, UniProt P10721); experiment: Competition binding assay, KIT Kd
T1 construct: made in house; host or cells: T7 phage display or HEK-293 cells
Method in brief: (§1)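 Steps: biotinylated ligand loaded on streptavidin magnetic beads 30 min; beads blocked with biotin; kinase, beads and compound combined 1 hour at room temperature; beads washed, eluted 30 min with 0.5 μM free ligand; eluted kinase measured by quantitative PCR. Kd derived from eleven-point threefold dilutions.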

[1] = biological target: kinase panel containing either 359 or 386 distinct kinases; experiment: Selectivity score S10 from competition binding against a panel of kinases; conditions: compounds at 10 μM; for Kinase specificty: S(10)-359 panel: panel of 359 distinct kinases
Method: Competition binding assays used herein were developed, validated and performed as described in Fabian et al., Nature Biotechnology 2005, 23,329-336. Kinases were produced as fusions to T7 phage (See, Fabian et al. or WO04/015142) or alternatively, the kinases were expressed in HEK-293 cells and subsequently tagged with DNA for PCR detection (See, WO08/005,310). For the binding assays, streptavidin-coated magnetic beads were treated with biotinylated affinity ligands for 30 min at room temperature to generate affinity resins. The liganded beads were blocked with excess biotin and washed with blocking buffer (SeaBlock (Pierce), 1% BSA, 0.05% Tween 20, 1 mM DTT) to remove unbound ligand and to reduce non-specific binding. Binding reactions were assembled by combining kinase, liganded affinity beads, and test compounds in 1× binding buffer (20% SeaBlock, 0.17×PBS, 0.05% Tween 20, 6 mM DTT). Test compounds were prepared as 100× stocks in DMSO and diluted into the aqueous environment. Kds were determined using an eleven point threefold serial dilutions. DMSO or control compounds were was added to control assays lacking a test compound. Primary screen assays were performed in polypropylene 384-well plates in a final volume of 20-40 μL, while Kd determinations were performed in polystyrene 96-well plates in a final volume of 135 μL. The assay plates were incubated at room temperature with shaking for 1 hour to allow the binding reactions to reach equilibrium, and the affinity beads were washed extensively with wash buffer (1×PBS, 0.05% Tween 20) to remove unbound protein. The beads were then resuspended in elution buffer (1×PBS, 0.05% Tween 20, 0.5 μM non-biotinylated affinity ligand) and incubated at room temperature with shaking for 30 min. The kinase concentration in the eluates was measured by quantitative PCR.
A selectivity score (S10) is a quantitative measure of selectivity of a compound against a panel of kinases. An S10 was calculated for a compound by dividing the number of kinases found to have a percent of control (DMSO) less than 10 by the total number of distinct kinases tested (excluding mutant variants). Percent of control (POC) is calculated by subtracting the signal of the control compound (POC=0) from the signal of the test compound and dividing the outcome by the signal of DMSO (POC=100) minus the signal of the control compound. For the compounds disclosed herein, S10 scores were obtained by testing the compounds at 10 μM concentration in a kinase panel containing either 359 or 386 distinct kinases.

CSF-1R kinase = biological target: T2, CSF-1R kinase (Homo sapiens, UniProt P07333); experiment: Competition binding assay, CSF-1R Kd
T2 construct: made in house; host or cells: T7 phage display or HEK-293 cells
Method in brief: as §1

FLT3 kinase = biological target: T3, FLT3 kinase (Homo sapiens, UniProt P36888); experiment: Competition binding assay, FLT3 Kd
T3 construct: made in house; host or cells: T7 phage display or HEK-293 cells
T3 sequence (P36888 27-993): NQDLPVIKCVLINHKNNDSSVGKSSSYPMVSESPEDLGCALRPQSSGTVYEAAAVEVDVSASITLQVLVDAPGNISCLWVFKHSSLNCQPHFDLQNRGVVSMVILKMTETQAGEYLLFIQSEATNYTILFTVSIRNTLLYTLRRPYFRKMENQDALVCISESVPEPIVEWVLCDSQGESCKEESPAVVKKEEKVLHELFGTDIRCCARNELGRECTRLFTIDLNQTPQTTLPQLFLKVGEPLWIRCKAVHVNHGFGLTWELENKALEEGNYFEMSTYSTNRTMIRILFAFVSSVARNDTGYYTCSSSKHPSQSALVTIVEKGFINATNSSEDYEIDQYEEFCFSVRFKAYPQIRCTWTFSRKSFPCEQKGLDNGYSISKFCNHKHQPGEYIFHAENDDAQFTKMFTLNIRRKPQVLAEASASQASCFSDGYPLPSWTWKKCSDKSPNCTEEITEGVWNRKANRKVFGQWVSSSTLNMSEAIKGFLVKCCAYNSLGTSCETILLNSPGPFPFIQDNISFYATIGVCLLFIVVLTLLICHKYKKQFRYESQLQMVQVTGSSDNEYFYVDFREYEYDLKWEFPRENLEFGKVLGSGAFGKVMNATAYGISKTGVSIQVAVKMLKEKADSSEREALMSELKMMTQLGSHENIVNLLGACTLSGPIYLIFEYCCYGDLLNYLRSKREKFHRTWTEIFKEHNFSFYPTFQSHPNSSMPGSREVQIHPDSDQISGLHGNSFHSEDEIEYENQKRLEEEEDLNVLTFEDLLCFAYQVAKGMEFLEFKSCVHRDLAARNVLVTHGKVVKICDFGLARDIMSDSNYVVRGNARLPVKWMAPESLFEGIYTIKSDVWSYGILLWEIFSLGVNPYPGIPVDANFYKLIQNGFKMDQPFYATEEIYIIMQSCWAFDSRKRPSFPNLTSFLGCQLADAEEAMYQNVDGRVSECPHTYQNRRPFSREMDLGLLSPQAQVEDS
Method in brief: as §1

T2 sequence (P07333 20-972): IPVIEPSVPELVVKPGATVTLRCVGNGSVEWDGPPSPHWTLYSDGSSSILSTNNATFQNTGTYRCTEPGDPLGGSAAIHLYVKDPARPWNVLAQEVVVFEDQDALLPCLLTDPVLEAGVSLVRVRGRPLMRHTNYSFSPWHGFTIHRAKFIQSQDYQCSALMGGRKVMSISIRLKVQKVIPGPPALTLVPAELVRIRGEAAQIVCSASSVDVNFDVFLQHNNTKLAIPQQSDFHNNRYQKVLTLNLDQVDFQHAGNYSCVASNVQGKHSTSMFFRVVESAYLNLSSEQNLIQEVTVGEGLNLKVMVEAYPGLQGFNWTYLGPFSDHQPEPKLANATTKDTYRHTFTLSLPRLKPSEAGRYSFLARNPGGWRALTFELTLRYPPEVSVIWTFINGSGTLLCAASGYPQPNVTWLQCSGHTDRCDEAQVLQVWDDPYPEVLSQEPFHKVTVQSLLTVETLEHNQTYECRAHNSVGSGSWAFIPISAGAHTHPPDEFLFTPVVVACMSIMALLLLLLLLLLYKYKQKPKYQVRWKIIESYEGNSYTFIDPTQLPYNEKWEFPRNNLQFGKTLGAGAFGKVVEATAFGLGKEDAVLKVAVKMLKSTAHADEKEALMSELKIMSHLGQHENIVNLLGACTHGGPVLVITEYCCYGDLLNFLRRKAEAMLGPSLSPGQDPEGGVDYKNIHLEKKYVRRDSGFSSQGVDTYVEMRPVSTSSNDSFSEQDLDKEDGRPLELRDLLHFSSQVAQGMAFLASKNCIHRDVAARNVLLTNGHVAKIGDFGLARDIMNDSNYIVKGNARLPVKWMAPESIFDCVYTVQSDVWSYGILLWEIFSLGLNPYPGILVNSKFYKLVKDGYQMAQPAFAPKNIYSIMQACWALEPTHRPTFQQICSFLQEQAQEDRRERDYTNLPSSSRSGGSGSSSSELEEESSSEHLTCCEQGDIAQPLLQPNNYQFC
T1 sequence (P10721 26-976): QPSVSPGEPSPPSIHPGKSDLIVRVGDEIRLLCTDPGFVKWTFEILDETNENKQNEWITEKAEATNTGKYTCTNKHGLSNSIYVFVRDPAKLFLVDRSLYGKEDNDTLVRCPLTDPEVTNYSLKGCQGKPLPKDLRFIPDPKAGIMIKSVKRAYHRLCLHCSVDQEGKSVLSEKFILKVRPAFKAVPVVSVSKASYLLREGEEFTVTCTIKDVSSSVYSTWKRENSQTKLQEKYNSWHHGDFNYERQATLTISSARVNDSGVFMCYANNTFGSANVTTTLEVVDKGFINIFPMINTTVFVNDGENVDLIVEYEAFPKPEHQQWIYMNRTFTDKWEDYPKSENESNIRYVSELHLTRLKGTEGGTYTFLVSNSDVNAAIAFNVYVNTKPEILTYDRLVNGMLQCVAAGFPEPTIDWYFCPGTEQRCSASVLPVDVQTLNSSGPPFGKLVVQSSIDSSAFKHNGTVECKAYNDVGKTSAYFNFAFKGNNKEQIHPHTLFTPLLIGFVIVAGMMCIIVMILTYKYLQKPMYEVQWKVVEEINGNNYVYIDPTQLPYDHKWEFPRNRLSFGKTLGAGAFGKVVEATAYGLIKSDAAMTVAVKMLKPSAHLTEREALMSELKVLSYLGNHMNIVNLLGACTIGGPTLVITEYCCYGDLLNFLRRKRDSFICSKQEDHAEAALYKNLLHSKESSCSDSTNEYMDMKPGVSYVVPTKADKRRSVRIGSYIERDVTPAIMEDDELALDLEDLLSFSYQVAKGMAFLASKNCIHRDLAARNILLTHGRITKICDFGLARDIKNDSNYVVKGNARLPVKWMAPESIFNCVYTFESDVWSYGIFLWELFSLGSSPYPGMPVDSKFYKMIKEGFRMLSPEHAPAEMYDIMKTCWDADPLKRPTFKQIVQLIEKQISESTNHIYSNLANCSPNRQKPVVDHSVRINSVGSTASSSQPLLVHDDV

SMILES	IC50 (MV4-11 cells) [nM]	Kd (KIT kinase) [nM]	Kinase specificty: S(10)-359 panel [1]	Kinase specificty: S(10)-386 panel ([1]; panel of 386 distinct kinases)	Kd (CSF-1R kinase) [nM]	Kd (FLT3 kinase)
CC(C)(C)c1cc(NC(=O)Cc2ccc(-c3ccc(N)nc3)cc2)no1 [Example 18, 2-(4-(6-aminopyridin-3-yl)phenyl)-N-(5-tert-butylisoxazol-3-yl)acetamide]	≤ 1	1 to 10	A (A≦0.1)	A (A≦0.1)	≤ 10	≤ 1 nM and 1 to 10 nM
CC(C)(C)c1cc(NC(=O)Nc2ccc(-c3ccc(N)nc3)s2)no1 [Example 19, 1-(5-(6-aminopyridin-3-yl)thiophen-2-yl)-3-(5-tert-butylisoxazol-3-yl)urea]	> 500	1 to 10	A (A≦0.1)	–	10 to 100	1 to 10 nM
CC(C)(C)c1cc(NC(=O)Nc2cc(F)c(-c3ccc(N)nc3)cc2F)no1 [Example 20, 1-(4-(6-aminopyridin-3-yl)-2,5-difluorophenyl)-3-(5-tert-butylisoxazol-3-yl)urea]	1 to 10	1 to 10	B (0.1<B≦0.2 nM)	–	≤ 10	≤ 1 nM
CC(C)(C)c1cc(NC(=O)Nc2ccc(-c3cnc4c(c3)COCCN4)cc2)no1 [Example 21, 1-(5-tert-butylisoxazol-3-yl)-3-(4-(1,2,3,5-tetrahydropyrido[2,3-e][1,4]oxazepin-7-yl)phenyl)urea]	1 to 10	≤ 1	B (0.1<B≦0.2 nM)	–	≤ 10	≤ 1 nM
CC(C)(C)c1cc(NC(=O)Nc2ccc(-c3cnc(N)c(COCCO)c3)cc2)no1 [Example 22, 1-(4-(6-amino-5-((2-hydroxyethoxy)methyl)pyridin-3-yl)phenyl)-3-(5-tert-butylisoxazol-3-yl)urea]	≤ 1	≤ 1	B (0.1<B≦0.2 nM)	–	≤ 10	≤ 1 nM
Cc1nc(N)ccc1-c1ccc(NC(=O)Nc2cc(C(C)(C)C)on2)cc1 [Example 23, 1-(4-(6-amino-2-methylpyridin-3-yl)phenyl)-3-(5-tert-butylisoxazol-3-yl)urea]	10 to 100	1 to 10	A (A≦0.1)	–	≤ 10	≤ 1 nM
Cc1cc(N)ncc1-c1ccc(NC(=O)Nc2cc(C(C)(C)C)on2)cc1 [Example 24, 1-(4-(6-amino-4-methylpyridin-3-yl)phenyl)-3-(5-tert-butylisoxazol-3-yl)urea]	1 to 10	1 to 10	A (A≦0.1)	–	≤ 10	≤ 1 nM
Cc1nc(N)ccc1-c1ccc(NC(=O)Nc2cc(C(C)(C)C)on2)nc1 [Example 25, 1-(6′-amino-2′-methyl-3,3′-bipyridin-6-yl)-3-(5-tert-butylisoxazol-3-yl)urea]	100 to 500	≤ 1	A (A≦0.1)	–	10 to 100	≤ 1 nM
Cc1cc(N)ncc1-c1ccc(NC(=O)Nc2cc(C(C)(C)C)on2)nc1 [Example 26, 1-(6′-amino-4′-methyl-3,3′-bipyridin-6-yl)-3-(5-tert-butylisoxazol-3-yl)urea]	100 to 500	≤ 1	A (A≦0.1)	–	≤ 10	≤ 1 nM
CC(C)(C)c1cc(NC(=O)Nc2ccc(-c3cnc(N)nc3)cc2)no1 [Example 44, 1-(4-(2-aminopyrimidin-5-yl)phenyl)-3-(5-tert-butylisoxazol-3-yl)urea]	≤ 1	1 to 10	B (0.1<B≦0.2 nM)	–	≤ 10	≤ 1 nM
Nc1ncc(-c2ccc(NC(=O)Cc3cccc(C(F)(F)F)c3)cc2)cn1 [Example 46, N-(4-(2-aminopyrimidin-5-yl)phenyl)-2-(3-(trifluoromethyl)phenyl)acetamide]	10 to 100	≤ 1	A (A≦0.1)	–	10 to 100	1 to 10 nM
CC(C)(C)c1cc(NC(=O)Nc2ccc(-c3cnc(OCCN4CCOCC4)nc3)cc2)no1 [Example 47, 1-(5-tert-Butyl-isoxazol-3-yl)-3-{4-[2-(2-morpholin-4-yl-ethoxy)-pyrimidin-5-yl]-phenyl}-urea]	10 to 100	1 to 10	A (A≦0.1)	–	10 to 100	1 to 10 nM
Cc1nc(N)ncc1-c1ccc(NC(=O)Nc2cc(C(C)(C)C)on2)cc1 [Example 49, 1-(4-(2-amino-4-methylpyrimidin-5-yl)phenyl)-3-(5-tert-butylisoxazol-3-yl)urea]	≤ 1	≤ 1	B (0.1<B≦0.2 nM)	–	≤ 10	≤ 1 nM
COc1nc(N)ncc1-c1ccc(NC(=O)Nc2cc(C(C)(C)C)on2)cc1 [Example 50, 1-[4-(2-amino-4-methoxypyrimidin-5-yl)-phenyl]-3-(5-tert-butylisoxazol-3-yl)-urea]	≤ 1	≤ 1	B (0.1<B≦0.2 nM)	–	≤ 10	1 to 10 nM
CC(CF)(CF)c1cc(NC(=O)Nc2ccc(-c3cnc(NCCN4CCOCC4)nc3)cc2)no1 [Example 52, 1-[5-(2-fluoro-1-fluoromethyl-1-methylethyl)isoxazol-3-yl]-3-{4-[2-(2-morpholin-4-yl-ethylamino)pyrimidin-5-yl]phenyl}urea]	1 to 10	≤ 1	B (0.1<B≦0.2 nM)	–	≤ 10	≤ 1 nM
O=C(Nc1ccc(-c2cnc(NCCN3CCOCC3)nc2)cc1)Nc1cc(C2(C(F)(F)F)CC2)on1 [Example 53, 1-{4-[2-(2-morpholin-4-yl-ethylamino)-pyrimidin-5-yl]-phenyl}-3-[5-(1-trifluoromethyl-cyclopropyl)-isoxazol-3-yl]urea]	1 to 10	≤ 1	B (0.1<B≦0.2 nM)	–	≤ 10	≤ 1 nM
O=C(Nc1ccc(-c2cnc(NCCN3CCOCC3)nc2)cc1)Nc1cccc(C(F)(F)F)c1 [Example 54, 1-(4-(2-(2-morpholinoethylamino)pyrimidin-5-yl)phenyl)-3-(3-(trifluoromethyl)phenyl)urea]	10 to 100	≤ 1	A (A≦0.1)	–	≤ 10	≤ 1 nM
